“And” between values parts separate entries of the source, which are not always exact repeats. Equal entries are not always repeated. “Also recorded” adds a separate entry of the source. Where two headings read alike, the source gives them in different places. Each block holds one compound with its values, some of them ahead of it.
Columns and labels:
OXA-48 = OXA-48 (Klebsiella pneumoniae, UniProt Q6XEC0); assay: OXA-48 inhibition assay using nitrocefin as reporter; format: biochemical; parameters: His-tag (N, cleaved yes); made in house; host or cells: E. coli BL21(DE3), pET28a; conditions: for potency/activity against OXA-48 in words: purified OXA-48, compared with CDD-97 where a derivative
Protocol: Nitrocefin, a chromogenic β-lactam substrate, was used as a reporter in all inhibition assays with the various OXA enzymes and various compounds. Nitrocefin is not stable in aqueous solution long-term. For these assays, nitrocefin stocks were prepared in DMSO, stored at −20° C. and used within 2 weeks of dissolving. To avoid freeze-thawing, fresh stocks were always used. The Km of nitrocefin was determined prior to inhibition assays by performing steady state kinetics. Assays were performed using a DU800 spectrophotometer at room temperature in 50 mM HEPES pH 7.5, 15 mM NaHCO3, and 0.02% tween 20 buffer. Hydrolyzed nitrocefin was detected at 482 nm. For a single experiment, a series of at least 5 nitrocefin concentrations were tested against the given enzyme in duplicate and the initial velocities were measured and fit to the Michaelis-Menten equation. Experiments were repeated twice, and error reported is the standard error of the mean.
Compounds were tested for inhibition of a given OXA enzyme from hydrolyzing nitrocefin using a Tecan plate reader. […] A control with no compound was included in each run. For each compound concentration, the velocity of nitrocefin hydrolysis was determined at 482 nm and fit to the Morrison equation. […] The average Ki of separate experiments, each of which consisted of duplicate runs, is reported and error was quantified as the standard deviation.
The activity of these derivatives was assessed using inhibition assays with purified OXA-48. Compounds were tested for the ability to inhibit OXA-48 from hydrolyzing nitrocefin, a chromogenic β-lactam substrate routinely used in β-lactamase inhibition assays. Nitrocefin contains a conjugated ring system that is readily hydrolyzed and produces a visible color shift from yellow to red upon hydrolysis (O'Callaghan, et al., 1972, Antimicrob. Agents Chemother. 1:283-288). The rate of nitrocefin hydrolysis in the presence of a constant amount of OXA-48 and increasing concentrations of a given compound of interest was monitored at 482 nm. These rates were plotted against compound concentration to determine the inhibition constant (Ki) against OXA-48. […] SPR was performed using 6×-His-OXA-48 enzyme that was amine-coupled on a Ni-NTA Chip. Meropenem, which covalently binds and inhibits OXA-48, was used as a positive control.

E. coli MG1655OXA-48 = assay: Bacterial susceptibility (MIC, broth microdilution) of E. coli expressing OXA-48; format: cell-based; conditions: for MIC: Escherichia coli
Protocol: Bacterial susceptibility was specifically tested using minimum inhibitory concentration assays. Susceptibility assays were performed with E. coli strains using broth in a microplate set up. Two-fold dilutions of antibiotic and/or inhibitor were used. For susceptibility tests, bacterial strains were transformed with plasmids containing OXA-48 with its endogenous signal sequence for periplasmic migration (cloned into pTP123 vector) (Majiduddin & Palzkill, 2003, Antimicrob. Agents Chemother. 47:1062-1067). pTP123 was cut with XbaI and SacI and the linearized fragment was assembled using Gibson assembly (New England Biolabs, Ipswich, MA) its signal sequence cloned in by using Gibson assembly. Bacteria were grown in Mueller-Hinton broth with 12.5 μg/mL chloramphenicol (plasmid marker) overnight. An overnight culture was diluted 1:10^4 into the final well solutions (100 uL total) and incubated for 16-18 hours. After incubation, microplates were read using a Tecan plate reader at absorbance 600. Growth was objectively defined as yielding an absorbance ≥2 times the absorbance of the negative control (media and no culture). Experiments were repeated with new bacterial inoculums each time.
Effective β-lactamase inhibitors synergize with β-lactam antibiotics and ultimately lower the minimum inhibitory concentration (MIC) of antibiotic needed to kill the bacteria. MIC studies were performed with ampicillin (AMP), a β-lactam antibiotic readily hydrolyzed by OXA-48, against E. coli strain MG1655 expressing OXA-48 (MG1655OXA-48). The OXA-48 plasmid construct contained the endogenous signal sequence of OXA-48 for secretion to the periplasm, which was expressed under a trc-promoter, allowing leaky expression in the absence of IPTG inducer. All MICs were performed by broth microdilution with 2-fold dilutions of antibiotic and/or inhibitor (FIG. 6A). The ampicillin (AMP) and imipenem (IMP) MICs were separately determined for a range of CDD-97 and avibactam concentrations. […] In the absence of bacteria, the media (Mueller Hinton) gives an absorbance reading of 0.04 so absorbance readings greater than or equal to two-fold the control were considered bacterial growth. […] CDD-97 was tested for its synergistic ability by determining AMP MICs with a range of CDD-97 concentrations (up to 256 μg/ml).
Impermeability of the outer membrane to small molecules is a major challenge for the development of therapeutics for Gram-negative bacterial infections. β-lactamases, including OXA-48, reside in the periplasmic space and so inhibitors must traverse the outer membrane to be effective. To determine whether low permeability caused the poor in vivo activity of CDD-97, an accumulation assay (Richter, et al., 2017, Nature 545:299-304) was performed to quantify the amount of CDD-97 present in E. coli cells after incubation. In the assay, tetracycline was used as a positive control while fusidic acid and clindamycin were used as negative controls (Richter, et al., 2017, Nature 545:299-304). Controls and CDD-97 were separately incubated with wildtype E. coli (MG1655) cells and then these cells were centrifuged through silicone oil to separate free, unaccumulated compound from the cell pellet. Cell lysates were collected by freeze-thawing and analyzed by mass spectrometry to quantify the amount of accumulated compound. Compared to tetracycline, CDD-97 was present in cells at 20-fold lower levels (FIG. 6B). […] The finding that CDD-97 accumulates inefficiently across the outer membrane was also examined by adding sub-lethal concentrations of colistin to the ampicillin/CDD-97 MIC assays. Colistin is known to disrupt the outer membrane and enhance permeability in E. coli. If the outer membrane is a barrier for CDD-97, it was predicted that the addition of sub-lethal concentrations of colistin would enhance the activity of CDD-97 against E. coli. […]

[1] = purified OXA-48, nitrocefin hydrolysis, Morrison fit

OXA-48, sequence (Q6XEC0 23-265, looked up): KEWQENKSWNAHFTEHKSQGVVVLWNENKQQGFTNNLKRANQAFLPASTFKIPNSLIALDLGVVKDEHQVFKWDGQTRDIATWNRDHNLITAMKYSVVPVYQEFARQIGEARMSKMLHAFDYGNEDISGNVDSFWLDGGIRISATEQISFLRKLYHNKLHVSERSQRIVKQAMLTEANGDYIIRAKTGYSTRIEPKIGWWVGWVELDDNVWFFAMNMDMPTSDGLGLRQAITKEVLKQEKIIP

Ki (OXA-48; [1]): 3230 ± 390 nM
Compound: CS(=O)(=O)c1ccccc1N1CCN(c2ncnc(N3CCC(C(=O)O)CC3)n2)CC1 [CDD-181, 1-(4-(4-(2-(methylsulfonyl)phenyl)piperazin-1-yl)-1,3,5-triazin-2-yl)piperidine-4-carboxylic acid]

Compound: CCOc1ccccc1N1CCN(c2ncnc(N3CCNC(C(=O)O)CC3)n2)CC1 (stereo not shown) [CDD-559]
Ki (OXA-48; [1]): 29000 nM
fold reduction in potency (OXA-48 Ki) compared to CDD-97 (OXA-48; relative to CDD-97): approximately 50 fold

Compound: CCOc1ccccc1N1CCN(c2ncnc(N3CC(F)(C(=O)O)C3)n2)CC1 [CDD-96, 1-(4-(4-(2-ethoxyphenyl)piperazin-1-yl)-1,3,5-triazin-2-yl)-3-fluoroazetidine-3-carboxylic acid]
potency/activity against OXA-48 in words (OXA-48): potency was low

Compound: colistin [reference compound]
colistin concentration at which bacteria were completely killed off regardless of the presence of AMP (E. coli MG1655OXA-48; colistin, with or without AMP): At ≥2 μg/mL colistin, bacteria were completely

Compound: NC(=O)[C@@H]1CC[C@@H]2CN1C(=O)N2OS(=O)(=O)O [avibactam, reference compound]
synergy with β-lactam antibiotics (effect on AMP/IMP MIC) in words (E. coli MG1655OXA-48; E. coli expressing OXA-48, CDD-97 up to 256 μg/mL, avibactam up to 4 μg/mL): dose-dependent decrease in both the AMP and IMP MICs
MIC (E. coli MG1655OXA-48; MG1655OXA48, read-out: AMP MIC, with 0.125 μg/mL avibactam): 256 µg/mL
MIC (E. coli MG1655OXA-48; MG1655OXA48, read-out: AMP MIC, with 1 μg/mL avibactam): 32 µg/mL
MIC (E. coli MG1655OXA-48; MG1655OXA48, read-out: AMP MIC, with 2 μg/mL avibactam): 16 µg/mL
MIC (E. coli MG1655OXA-48; MG1655OXA48, read-out: AMP MIC, with 4 μg/mL avibactam): 4 µg/mL
MIC (E. coli MG1655OXA-48; MG1655OXA48, read-out: AMP MIC, with .25 μg/mL avibactam): 128 µg/mL
MIC (E. coli MG1655OXA-48; MG1655OXA48, read-out: AMP MIC, with .5 μg/mL avibactam): 64 µg/mL
MIC (E. coli MG1655OXA-48; MG1655OXA48, read-out: IMP MIC, with 0.125 μg/mL avibactam): 0.312 µg/mL
MIC (E. coli MG1655OXA-48; MG1655OXA48, read-out: IMP MIC, with 1 μg/mL avibactam): 0.156 µg/mL
MIC (E. coli MG1655OXA-48; MG1655OXA48, read-out: IMP MIC, with 2 μg/mL avibactam): 0.156 µg/mL
MIC (E. coli MG1655OXA-48; MG1655OXA48, read-out: IMP MIC, with 4 μg/mL avibactam): 0.0781 µg/mL
MIC (E. coli MG1655OXA-48; MG1655OXA48, read-out: IMP MIC, with .25 μg/mL avibactam): 0.312 µg/mL
MIC (E. coli MG1655OXA-48; MG1655OXA48, read-out: IMP MIC, with .5 μg/mL avibactam): 0.156 µg/mL

Compound: CCOc1ccccc1N1CCN(c2ncnc(N3CC(F)(C(=O)NC)C3)n2)CC1 [CDD-147, 1-(4-(4-(2-ethoxyphenyl)piperazin-1-yl)-1,3,5-triazin-2-yl)-3-fluoro-N-methylazetidine-3-carboxamide]
potency/activity against OXA-48 in words (OXA-48): potency was low
Ki (OXA-48; [1]): > 50000 nM

Compound: C[C@@H](O)[C@H]1C(=O)N2C(C(=O)O)=C(SCCN=CN)C[C@H]12 [IMP, imipenem, reference compound]
MIC (E. coli MG1655OXA-48; MG1655OXA48, read-out: IMP MIC, imipenem alone, no inhibitor): 0.625 µg/mL

Ki (OXA-48; [1]): > 50000 nM
Compound: CN1CCN(c2ncnc(N3CCC(C(=O)O)CC3)n2)CC1 [CDD-187, 1-(4-(4-methylpiperazin-1-yl)-1,3,5-triazin-2-yl)piperidine-4-carboxylic acid]

Ki (OXA-48; [1]): 1000 nM and 830 nM
Compound: O=C(O)C1CCN(c2ncnc(N3CCN(c4ccccc4OCC(F)(F)F)CC3)n2)CC1 [CDD-178, 1-(4-(4-(2-(2,2,2-trifluoroethoxy)phenyl)piperazin-1-yl)-1,3,5-triazin-2-yl)piperidine-4-carboxylic acid]

Ki (OXA-48; [1]): 260 ± 40 nM
Compound: CCOc1ccccc1N1CCN(c2ncnc(N3CCC(S(=O)(=O)O)CC3)n2)CC1 [drawing 46]

Compound: CCOc1ccccc1N1CCN(c2nc(NCCCCN)nc(N3CCC(C(=O)O)CC3)n2)CC1 [CDD-863]
potency/activity against OXA-48 in words (OXA-48): does not have a large effect on potency
Ki (OXA-48; [1]): 450 nM

Ki (OXA-48; [1]): 1700 nM
Compound: O=C(O)C1CCN(c2ncnc(N3CCN(c4ccccc4C(F)(F)F)CC3)n2)CC1 [CDD-180, 1-(4-(4-(2-(trifluoromethyl)phenyl)piperazin-1-yl)-1,3,5-triazin-2-yl)piperidine-4-carboxylic acid]

Compound: CCOc1ccccc1N1CCN(c2ncnc(N3CCC(C(N)=O)CC3)n2)CC1 [CDD-553, 1-(4-(4-(2-ethoxyphenyl)piperazin-1-yl)-1,3,5-triazin-2-yl)piperidine-4-carboxamide]
potency/activity against OXA-48 in words (OXA-48): significant loss of inhibitory activity
Ki for OXA-48 inhibition (OXA-48; [1]): No binding

Compound: 1-(4-(2-(2-ethoxyphenoxy)ethoxy)-1,3,5-triazin-2-yl)piperidine-4-carboxylic acid [CDD-900]
Ki (OXA-48; [1]): 38100 nM

Ki (OXA-48; [1]): 29000 ± 4000 nM
Compound: CCOc1ccccc1N1CCN(c2ncnc(N3CCC(N)(C(=O)O)CC3)n2)CC1

Ki (OXA-48; [1]): 7510 ± 230 nM
Compound: CCOc1ccccc1CCNc1ncnc(N2CCC(C(=O)O)CC2)n1 [CDD-375, 1-(4-((2-ethoxyphenethyl)amino)-1,3,5-triazin-2-yl)piperidine-4-carboxylic acid]

Compound: CCOc1ccccc1N1CCN(c2nc(N)nc(N3CCC(C(=O)O)CC3)n2)CC1 [CDD-616, 1-(4-amino-6-(4-(2-ethoxyphenyl)piperazin-1-yl)-1,3,5-triazin-2-yl)piperidine-4-carboxylic acid]
potency/activity against OXA-48 in words (OXA-48): does not have a large effect on potency; also recorded: retain potency; also recorded: did not affect potency
Ki (OXA-48; [1]): 520 ± 10 nM

Compound: CC1(C)S[C@@H]2[C@H](NC(=O)[C@H](N)c3ccccc3)C(=O)N2[C@H]1C(=O)O [AMP, ampicillin, reference compound]
MIC (E. coli MG1655OXA-48; MG1655OXA48, read-out: AMP MIC, ampicillin alone, no inhibitor): 512 µg/mL
MIC (E. coli MG1655OXA-48; MG1655OXA48, read-out: AMP MICs, (−) CDD-97, colistin 0 μg/mL): 1020 µg/mL
MIC (E. coli MG1655OXA-48; MG1655OXA48, read-out: AMP MICs, (−) CDD-97, colistin 0.0625 μg/mL): 1020 µg/mL
MIC (E. coli MG1655OXA-48; MG1655OXA48, read-out: AMP MICs, (−) CDD-97, colistin 0.125 μg/mL): 1020 µg/mL
MIC (E. coli MG1655OXA-48; MG1655OXA48, read-out: AMP MICs, (−) CDD-97, colistin 0.25 μg/mL): 512 µg/mL
MIC (E. coli MG1655OXA-48; MG1655OXA48, read-out: AMP MICs, (−) CDD-97, colistin 0.5 μg/mL): 256 µg/mL
MIC (E. coli MG1655OXA-48; MG1655OXA48, read-out: AMP MICs, (−) CDD-97, colistin 1 μg/mL): 256 µg/mL

Ki (OXA-48; [1]): 15000 nM
Compound: CCOc1ccccc1CCCNc1ncnc(N2CCC(C(=O)O)CC2)n1 [CDD-899]

Ki (OXA-48; [1]): 840 ± 30 nM
Compound: CCOc1ccccc1N1CCN(c2nc(NCCN)nc(N3CCC(C(=O)O)CC3)n2)CC1 [drawing 44]

Reference: US12286418B2, “Compounds and methods for treating or preventing bacterial infections” (priority 2019, dated 2025)
